Test results from PubChem BioAssay (NCI).
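Compound exposure: 48 hours, 5 concentrations, 96-well plates. TGI denotes the concentration required for complete inhibition of growth.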

Key:
Assay in all cases: NCI tumour cell line growth inhibition, 48 h
OVCAR-5 ovarian = tested on: OVCAR-5 ovarian
UO-31 renal = tested on: UO-31 renal
NCI-H226 lung = tested on: NCI-H226 lung
UACC-62 melanoma = tested on: UACC-62 melanoma
DU-145 prostate = tested on: DU-145 prostate
HCT-116 colon = tested on: HCT-116 colon
NCI/ADR-RES ovarian = tested on: NCI/ADR-RES ovarian
A549 NSCLC = tested on: A549 NSCLC
NCI-H460 lung = tested on: NCI-H460 lung
HT29 colon = tested on: HT29 colon
T-47D breast = tested on: T-47D breast
M14 melanoma = tested on: M14 melanoma
SNB-19 CNS = tested on: SNB-19 CNS
HS 578T breast = tested on: HS 578T breast
SR leukemia = tested on: SR leukemia
HCC-2998 colon = tested on: HCC-2998 colon

| SMILES | TGI (OVCAR-5 ovarian) [µM] | TGI (UO-31 renal) [µM] | TGI (NCI-H226 lung) [µM] | TGI (UACC-62 melanoma) [µM] | TGI (DU-145 prostate) [µM] | TGI (HCT-116 colon) [µM] | TGI (NCI/ADR-RES ovarian) [µM] | TGI (A549 NSCLC) [µM] | TGI (NCI-H460 lung) [µM] | TGI (HT29 colon) [µM] | TGI (T-47D breast) [µM] | TGI (M14 melanoma) [µM] | TGI (SNB-19 CNS) [µM] | TGI (HS 578T breast) [µM] | TGI (SR leukemia) [µM] | TGI (HCC-2998 colon) [µM] |
| --- | --- | --- | --- | --- | --- | --- | --- | --- | --- | --- | --- | --- | --- | --- | --- | --- |
| S=C1C=C(c2ccccc2)Sc2ccccc2N1 | > 100 | > 100 | > 100 | > 100 | > 100 | > 100 | > 100 | > 100 | > 100 | > 100 | > 100 | > 100 | > 100 | > 100 | > 100 |  |
| CCOC(=O)c1c(SCCO)n(-c2ccccc2)c(=S)n(-c2ccccc2)c1=O | > 100 | > 100 | > 100 | > 100 | > 100 | > 100 | > 100 | > 100 | > 100 | > 100 | > 100 | > 100 | > 100 | > 100 | > 100 |  |
| O=C(NC(Nc1ccc(F)c(Cl)c1)(C(F)(F)F)C(F)(F)F)C(C(F)(F)F)C(F)(F)F | 78.1 | 59.1 | 64.7 |  | > 100 | 41.7 | 63.4 | > 100 | > 100 | 67.9 | > 100 | > 100 | > 100 | 64.7 | > 100 | > 100 |
| C[N+]1(C)CN(c2ccccc2)C2(CCN(CCCC(=O)c3cccs3)CC2)C1=O | > 100 | > 100 | > 100 | > 100 | > 100 | > 100 | > 100 | > 100 | > 100 | > 100 | > 100 | 51.9 | > 100 | > 100 | > 100 | > 100 |
| CC(=O)OC[C@@]12C[C@H]3C(=O)C(C)(C)C[C@H]3[C@]1(C)[C@@H](OC(C)=O)[C@]1(O)[C@H]([C@@H](OC(=O)c3ccccc3)[C@@H](C)[C@H]1OC(C)=O)[C@H]2OC(C)=O | > 20 | > 20 | > 20 | > 20 | > 20 | > 20 | > 20 |  | > 20 |  | > 20 | > 20 | > 20 | > 20 | > 20 | > 20 |
| CC1(C)CC(=O)c2c(nc3ccc4ccccc4c3c2-c2ccc(NC(=O)CCCCC(=O)Nc3ccc(-c4c5c(nc6ccc7ccccc7c46)CC(C)(C)CC5=O)cc3)cc2)C1 | > 100 | > 100 | > 100 | > 100 | > 100 | > 100 | > 100 | > 100 | > 100 | > 100 | > 100 | > 100 | > 100 | > 100 | > 100 |  |
| CCCCCCCCCN1CCC(=O)C(C(=O)OC)C1 (stereo not drawn) | 29 | 22 | 27.5 | 24.9 | 29.3 | 26.9 | 26.8 | 30.7 | 32.9 | 22.7 | 28.3 | 29.2 |  | 36.6 | 18.1 | 33.8 |
| CSCCC(NC(c1ccccc1)c1ccccc1)[P+](=O)O (stereo not drawn) | > 100 | > 100 | > 100 | > 100 | > 100 | > 100 | > 100 | > 100 | > 100 | > 100 | > 100 | > 100 | > 100 | > 100 | > 100 |  |
| C[C@@H]1CCC2[C@@H](C)C(=O)O[C@@H]3C4C[C@@H]1[C@@]23OO[C@@]4(C)O (stereo partly drawn) | > 100 | 94 |  | > 100 | > 100 | > 100 | > 100 | > 100 | > 100 | > 100 | > 100 | > 100 | > 100 | > 100 | > 100 | > 100 |
| CCC1(C)N=C(C(N)=O)c2ncn(N=C(C)C)c2N1 (stereo not drawn) | > 100 |  | > 100 | > 100 | > 100 | > 100 | > 100 | > 100 | > 100 | > 100 | > 100 | > 100 | > 100 | > 100 | > 100 | > 100 |
| COc1ccc(C)cc1NC(=S)N/N=C/c1ccc(SC)cc1 | > 100 | > 100 |  | > 100 | > 100 | > 100 | > 100 | > 100 |  | > 100 | > 100 | 73.9 | > 100 | > 100 | > 100 |  |
| Cc1cc(=Nc2ccc3c(c2)c(N)cc(C)[n+]3C)nc(N)n1C | > 100 | > 100 |  | > 100 | > 100 | > 100 | > 100 | > 100 | > 100 | > 100 | > 100 | > 100 | > 100 | > 100 | > 100 |  |
| CSCCCCCCCCCCOc1ccc(C=C2C(=C(C#N)C#N)c3ccccc3C2=C(C#N)C#N)cc1 | 30.2 | 29.9 | 79.9 |  | 28.9 | 34.2 | 75.7 |  | 32.2 | 31 | 51.4 | 32.1 |  | 44.6 | 52.6 |  |
| NC(CCCCNc1ccn(C2OC(CO)C(O)C2O)c(=O)n1)C(=O)O (stereo not drawn) | > 100 | > 100 | > 100 | > 100 | > 100 |  | > 100 | > 100 | > 100 |  | > 100 | > 100 | > 100 | > 100 | > 100 | > 100 |
| C[C@@H]1C(O)CC[C@H](C)C12CC=CC2=O (stereo partly drawn) | > 100 | > 100 | > 100 | > 100 | > 100 | > 100 | > 100 | > 100 | > 100 | > 100 | > 100 |  | > 100 | > 100 | > 100 | > 100 |
| Nc1cccc(OCc2nc(N)nc(N)c2-c2ccc(Cl)cc2)c1 | > 100 | > 100 | 79.5 | > 100 | > 100 | > 100 | > 100 | > 100 | > 100 | > 100 | > 100 | > 100 | > 100 | > 100 | > 100 |  |
